Data reported in patent US10059667B2, “Antidiabetic compounds” (MERCK SHARP & DOHME CORP., priority 2014, dated 2018).

What was measured:
Human GPR40 [1] = target: T1, Human GPR40 (Homo sapiens (Human), UniProt O14842); experiment: FLIPR assay, agonist-induced calcium mobilization in GPR40/CHO NFAT BLA cells; type: cell-based
Protocol: (§1) Human and mouse GPR40 stable cell-lines were generated in CHO cells stably expressing NFAT BLA (Beta-lactamase). A human GPR40 stable cell-line was generated in HEK cells stably expressing the aequorin expressing reporter. The expression plasmids were transfected using lipofectamine (Life Technologies) following manufacturer's instructions. Stable cell-lines were generated following drug selection.
FLIPR (Fluorimetric Imaging Plate Reader, Molecular Devices) assays were performed to measure agonist-induced calcium mobilization of the stable clones. For the FLIPR assay, one day before assay, GPR40/CHO NFAT BLA cells were seeded into black-wall-clear-bottom 384-well plates (Costar) at 1.4×10e4 cells/20 μL medium/well. The cells were incubated with 20 μl/well of the assay buffer (HBSS, 0.1% BSA, 20 mM HEPES, 2.5 mM probenecid, pH 7.4) containing 8 μM fluo-4, AM, 0.08% pluronic acid at room temperature for 100 minutes. Fluorescence output was measured using FLIPR. Compounds were dissolved in DMSO and diluted to desired concentrations with assay buffer. 13.3 μL/well of compound solution was added.

Human GPR40 [2] = target: T1, Human GPR40; experiment: Inositol Phosphate Turnover (IP1) Assay 1, HEK cells stably expressing human GPR40, 3H-inositol SPA; type: cell-based; conditions: HEK cells stably expressing human GPR40, 96-well
Protocol: as §1
The assay was performed in 96-well format. HEK cells stably expressing human GPR40 were plated to be 60-80% confluent within 72 h. After 72 h, the plates were aspirated and the cells washed with inositol-free DMEM (ICN). The wash media was replaced with 150 μL of 3H-inositol labeling media (inositol-free media containing 0.4% human albumin or 0.4% mouse albumin, 1× pen/strep antibiotics, glutamine, 25 mM HEPES to which was added 3H-myo-inositol NEN #NET114A 1 mCi/mL, 25 Ci/mmol diluted 1:150 in loading media with a final specific radioactivity of 1 μCi/150 μL). Alternatively, the human and mouse albumin can be added after the overnight labeling step before the addition of LiCl.
The assay was typically run the next day after 18 h labeling. On the day of the assay, 5 μL of 300 mM LiCl was added to all wells and incubated at 37 degrees for 20 min. 0.75 μL of each compound was added and incubated with the cells for 60 min at 37 degrees. The media was then aspirated off and the assay terminated with the addition of 60 μL 10 mM formic acid. The cells were lysed for 60 min at room temperature. 15-30 μL of lysate was mixed with 70 μL/1 mg YSi SPA beads (Amersham) in clear bottom Isoplates. The plates were shaken for 2 h at room temperature. Beads were allowed to settle and the plates were counted in the Wallac Microbeta.

T1 sequence (O14842 whole entry): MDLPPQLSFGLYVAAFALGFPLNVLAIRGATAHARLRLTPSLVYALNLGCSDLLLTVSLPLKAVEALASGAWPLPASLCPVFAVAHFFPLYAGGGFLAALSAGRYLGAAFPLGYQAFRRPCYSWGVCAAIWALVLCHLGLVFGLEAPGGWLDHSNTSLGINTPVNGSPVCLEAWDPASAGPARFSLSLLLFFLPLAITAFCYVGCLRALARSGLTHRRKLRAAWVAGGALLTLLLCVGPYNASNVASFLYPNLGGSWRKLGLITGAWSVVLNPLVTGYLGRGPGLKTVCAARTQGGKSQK

Structure (SMILES)	EC50 (Human GPR40 [1]) [nM]	EC50 (Human GPR40 [2]) [nM]
C[C@H](C(=O)O)[C@H](c1cccc(OCC2CN(c3cc(C(F)(F)F)ccc3C(F)(F)F)C2)c1)C1CC1 [Example 4, (2S,3R)-3-(3-((1-(2,5-Bis(trifluoromethyl)phenyl)azetidin-3-yl)methoxy)phenyl)-3-cyclopropyl-2-methylpropanoic acid]	77	485
C[C@H](C(=O)O)[C@H](c1cccc(O[C@@H]2CCCN(Cc3cc(C(F)(F)F)ccc3C(F)(F)F)C2)c1)C1CC1 [Example 7, (2S,3R)-3-(3-(((R)-1-(2,5-bis(trifluoromethyl)benzyl)piperidin-3-yl)oxy)phenyl)-3-cyclopropyl-2-methylpropanoic acid]	2	89
COc1ccc(F)cc1CN1CCC(Oc2cccc([C@@H](CC(=O)O)C3CC3)c2)C1 (stereo partly drawn) [Example 12, (3S)-3-Cyclopropyl-3-(3-((1-(5-fluoro-2-methoxybenzyl)pyrrolidin-3-yl)oxy)phenyl)propanoic acid]	111	4660
C[C@H](C(=O)O)[C@H](c1cccc(OCC2CC(NCc3cc(C(F)(F)F)ccc3C(F)(F)F)C2)c1)C1CC1 (stereo partly drawn) [Example 14, (2S,3R)-3-(3-((3-((2,5-Bis(trifluoromethyl)benzyl)amino)cyclobutyl)methoxy)phenyl)-3-cyclopropyl-2-methylpropanoic acid]	26	956
C[C@H](C(=O)O)[C@H](c1cccc(OCC2CN(c3cc(C(F)(F)F)ccn3)C2)c1)C1CC1 [Example 16, (2S,3R)-3-Cyclopropyl-2-methyl-3-(3-((1-(4-(trifluoromethyl)pyridin-2-yl)azetidin-3-yl)methoxy)phenyl)propanoic acid]	79	631

Second part, the compound after the results:

EC50 (Human GPR40 [1]) [nM]	EC50 (Human GPR40 [2]) [nM]	Structure (SMILES)
126	8380	O=C(O)C[C@H](c1cccc(OCC2CCCCN2Cc2cc(C(F)(F)F)ccc2C(F)(F)F)c1)C1CC1 (stereo partly drawn) [Example 3, (3S)-3-(3-((1-(2,5-Bis(trifluoromethyl)benzyl)piperidin-2-yl)methoxy)phenyl)-3-cyclopropylpropanoic acid]
95	2720	CC1(COc2cccc([C@@H](CC(=O)O)C3CC3)c2)CN(Cc2cc(C(F)(F)F)ccc2C(F)(F)F)C1 [Example 6, (S)-3-(3-((1-(2,5-Bis(trifluoromethyl)benzyl)-3-methylazetidin-3-yl)methoxy)phenyl)-3-cyclopropylpropanoic acid]
15	866	O=C(O)C[C@H](c1cccc(OC2CC3CN(Cc4cc(C(F)(F)F)ccc4C(F)(F)F)CC3C2)c1)C1CC1 (stereo partly drawn) [Example 8, (3S)-3-(3-((2-(2,5-bis(trifluoromethyl)benzyl)octahydrocyclopenta[c]pyrrol-5-yl)oxy)phenyl)-3-cyclopropylpropanoic acid]
4	217	CC(Oc1cccc([C@H](C2CC2)[C@H](C)C(=O)O)c1)C1CN(Cc2cc(C(F)(F)F)ccc2C(F)(F)F)C1 (stereo partly drawn) [Example 9, (2S,3R)-3-(3-(1-(1-(2,5-Bis(trifluoromethyl)benzyl)azetidin-3-yl)ethoxy)phenyl)-3-cyclopropyl-2-methylpropanoic acid]
22	967	O=C(O)C[C@H](c1cccc(OCC2(F)CN(Cc3cc(C(F)(F)F)ccc3C(F)(F)F)C2)c1)C1CC1 [Example 11, (S)-3-(3-((1-(2,5-Bis(trifluoromethyl)benzyl)-3-fluoroazetidin-3-yl)methoxy)phenyl)-3-cyclopropylpropanoic acid]
129	1850	O=C(O)C[C@H](c1cccc(OCC2CCN(c3cc(C(F)(F)F)ccc3C(F)(F)F)C2)c1)C1CC1 (stereo partly drawn) [Example 13, (3S)-3-(3-((1-(2,5-Bis(trifluoromethyl)phenyl)pyrrolidin-3-yl)methoxy)phenyl)-3-cyclopropylpropanoic acid]
79	2080	O=C(O)C[C@H](c1cccc(OC2CC3(C2)CN(Cc2cc(C(F)(F)F)ccc2C(F)(F)F)C3)c1)C1CC1 [Example 15, (S)-3-(3-((2-(2,5-Bis(trifluoromethyl)benzyl)-2-azaspiro[3.3]heptan-6-yl)oxy)phenyl)-3-cyclopropylpropanoic acid]
